Columns and labels:
REH = experiment: LDH release (cell membrane integrity), REH; format: cell-based; settings: Homo sapiens, 4 h, read-out: LDH (% of total)
Protocol: FIGS. 8A and 8B depict cell viability and growth rates for REH cell line following taurolidine treatment, in terms of % trypan blue negative cells and % cell number, respectively. Cells were treated with various concentrations of taurolidine for 4 hours in AIM-V+0.01% BCS. After aliquots were collected for LDH assay, the remainder of the culture was rinsed in HBSS and resuspended in RPMI+10% BCS without taurolidine. Counts of trypan blue-negative cells (FIG. 8A), and total cell number (FIG. 8B), were recorded daily thereafter (with the measurement at Day 1 being made immediately after the 4 hour taurolidine treatment). Conditions were: no treatment (open circles); 25 μg/ml taurolidine (closed circles); 50 μg/ml taurolidine (open squares); 100 μg/ml taurolidine (closed squares); and vehicle alone (closed triangles). Doubling times were determined under each condition, and expressed as a percentage of the rate of doubling of untreated cells. […]
(§1) In these experiments, integrity of cell membranes following taurolidine treatment was assessed by exclusion of trypan blue and by measuring the release of LDH in MM6, K-562, HL-60, and REH cells. […] A parallel aliquot of cells was lysed by three cycles of freeze/thaw and the quantity of LDH released was taken to be 100%. […]
^a LDH was measured immediately after four hour taurolidine treatment.

K-562 = experiment: growth rate after taurolidine treatment, K-562; format: cell-based, human
Protocol: (§2) FIGS. 6A and 6B depict cell viability and growth rates for K562 cell line following taurolidine treatment, in terms of % trypan blue negative cells and % cell number, respectively. Cells were treated with various concentrations of taurolidine for 4 hours in AIM-V+0.01% BCS. After aliquots were collected for LDH assay, the remainder of the culture was rinsed in HBSS and resuspended in RPMI+10% BCS without taurolidine. Counts of trypan blue-negative cells (FIG. 6A), and total cell number (FIG. 6B), were recorded daily thereafter (with the measurement at Day 1 being made immediately after the 4 hour taurolidine treatment). Conditions were: no treatment (open circles); 25 μg/ml taurolidine (closed circles); 50 μg/ml taurolidine (open squares); 100 μg/ml taurolidine (closed squares); and vehicle alone (closed triangles). Doubling times were determined under each condition, and expressed as a percentage of the rate of doubling of untreated cells. These values are located to the right of the growth curves in (FIG. 6B). Cells were subcultured when they reached a concentration of 6×10^5 cells/ml. Data are mean±SEM of three experiments.
In these experiments, integrity of cell membranes following taurolidine treatment was assessed by exclusion of trypan blue and by measuring the release of LDH in MM6, K-562, HL-60, and REH cells. Since BCS contains significant amounts of LDH, these experiments were conducted on cells cultured in AIM-V+0.01% BCS. Four hour treatment of cells was conducted in AIM-V containing 0.01% BCS in order to allow subsequent LDH assay without interference from BCS (which occurs in when normal culture medium, containing 10% BCS, is used). Thus, MM6 cells (5×10^5 cells/ml) were treated with taurolidine for four hours in AIM-V+0.01% BCS, after which an aliquot of the cell suspension was removed for measurement of LDH release. A parallel aliquot of cells was lysed by three cycles of freeze/thaw and the quantity of LDH released was taken to be 100%. Remaining cells were rinsed in HBSS and resuspended in growth medium for measurement of growth rates.
(§3) HL-60 cells treated with 50 μl taurolidine. In these samples, LDH present in the culture medium was 8.3±2.3% of that released by completely lysed cells, compared with 2.3±0.8% measured in control cultures. […] After 4 hour treatment, cells were rinsed and returned to growth medium and monitored for viability and growth over the following 3 days. Concentrations of taurolidine from 25 μg/ml to 100 μ/ml were used in order to highlight differences in sensitivity of cell lines to taurolidine.
(§4) ^b Growth rate was measured over three days following treatment.

HL-60 = experiment: growth rate after taurolidine treatment, HL-60; format: cell-based, human
Protocol: as §2, with “7A” for “6A”, “7B” for “6B”, “HL-60” for “K562”, “7A),” for “6A),”, “7B),” for “6B),”, “7B).” for “6B).”
as §1, with “cells. Since BCS contains significant amounts of LDH, these experiments were conducted on cells cultured in AIM-V+0.01% BCS.” for “cells.”
as §3, with “Concentrations of taurolidine from 25 μg/ml to 100 μ/ml were used in order to highlight differences in sensitivity of cell lines to taurolidine.” left out
as §4

MM6 cells = experiment: cell morphology / size (microscopy, flow cytometry FSC and SSC), MM6; format: cell-based, human
Protocol: FIG. 12A, FIG. 12B, FIG. 12C, and FIG. 12D are flow cytometric analyses depicting changes in cell morphology following taurolidine treatment. MM6 and PBMC were treated for three hours with taurolidine, and then treated and untreated control cells were processed for flow cytometry. Monocytes in PBMC samples were identified by staining with FITC-conjugated anti-CD14, and lymphocytes by FITC-conjugated anti-CD3 and PE-conjugated anti-CD19. FIG. 12A represents untreated MM6 cells; FIG. 12B represents MM6 cells treated with 50 μg/ml taurolidine; FIG. 12C represents untreated PBMC; and FIG. 12D represents PBMC treated with 75 μg/ml taurolidine. M=monocytes; L=lymphocytes.
A Becton-Dickinson FACSCalibur instrument was used for flow cytometric analysis of cells. Assessment of cell diameter (forward scatter; FCS) and granularity (side scatter; SSC).was carried out on unfixed cells. Discrimination between lymphocytes and monocytes was made possible by their characteristic differences in FSC and SSC, and confirmed by staining monocytes with FITC-labeled anti-CD14 antibodies and lymphocytes with a combination of FITC-conjugated anti-CD3 and PE-conjugated anti-CD19. After incubation with taurolidine (with or without concomitant LPS treatment), cells were rinsed twice in phosphate-buffered saline containing 0.1% bovine serum albumin (PBSA) and 1×10^6 cells were resuspended in 0.1 ml PBSA. […]

Question: `O=S1(=O)CCN(CN2CCS(=O)(=O)NC2)CN1` [taurolidine, 4,4'-methylenebis(perhydro-1,2,4-thiadiazin 1,1-dioxide)] was tested. Which cytotoxicity at 50 µg/mL (REH; 50 μg/ml) did it give?
Answer: The cytotoxicity at 50 µg/mL was 6%.

Question: And the cytotoxicity at 100 µg/mL (REH; 100 μg/ml)?
Answer: Its cytotoxicity at 100 µg/mL is 5%.

Question: And the activity at 50 µg/mL (K-562; Homo sapiens, K562, 72 h, K-562, 50 μg/ml for 4 h, growth over three days, read-out: growth rate (% of control))?
Answer: Its activity at 50 µg/mL is 52%.

Question: What about the activity at 100 µg/mL (K-562; Homo sapiens, K562, 72 h, K-562, 100 μg/ml for 4 h, growth over three days, read-out: growth rate (% of control)) of the same molecule?
Answer: Its activity at 100 µg/mL is 0%.

Question: And the “sensitivity of cell growth among cell lines” value (K-562; K562)?
Answer: Its value is “least affected”.

Question: What about the “growth after taurolidine treatment” value (K-562; K562, 50 μg/ml or greater) of the same molecule?
Answer: Its value is “inhibition of growth”.

Question: And the “sensitivity of cell growth among cell lines” value (HL-60; HL-60)?
Answer: The value was “most inhibited”.

Question: What about the activity at 50 µg/mL (HL-60; Homo sapiens, 72 h, HL-60, 50 μg/ml for 4 h, growth over three days, read-out: growth rate (% of control)) of the same molecule?
Answer: Its activity at 50 µg/mL is 0%.

Question: And the activity at 100 µg/mL (HL-60; Homo sapiens, 72 h, HL-60, 100 μg/ml for 4 h, growth over three days, read-out: growth rate (% of control))?
Answer: The activity at 100 µg/mL was 3%.

Question: What about the “cell size by microscopy” value (MM6 cells; MM6, 100 μg/ml taurolidine, 4 h) of the same molecule?
Answer: Its value is “smaller than control cells”.

Question: And the “decrease in FSC” value (MM6 cells; MM6, taurolidine 3 h)?
Answer: The value was “approximately 30%”.

Reference: patent US6303596A, “Use of taurolidine for treatment of leukemias” (priority 2000, dated 2001)
